According to patent US7807679B2, “Piperazine derivatives and their use in controlling pests” (Syngenta Crop Protection, Inc., priority 2004, dated 2010):

Experiments:
Assay type in all cases: in vivo
[1] = tested on: Heliothis virescens (Tobacco Budworm); experiment: Heliothis virescens egg test on artificial diet; conditions: 96 h, 200 ppm by pipetting, eggs (0-24 h old) on artificial diet, egg mortality, larval mortality, growth regulation after 4 days
Protocol: Eggs (0-24 h old) were placed in 24-well microtiter plate on artificial diet and treated with test solutions at an application rate of 200 ppm by pipetting. After an incubation period of 4 days, samples were checked for egg mortality, larval mortality, and growth regulation. The following compounds gave at least 80% control of Heliothis virescen: • I-3, I-6, I-7, I-26, I-29, I-30, I-47, I-49, I-52, I-53, I-72, I-75, I-417, I-532, I-578, I-785, I-854, I-877, III-49, V-49, XII-49, XIV-26, XIV-49, XV-26, XVI-26, XVII-26, XXIV-2, XXIV-46, XXIV-90, XXIV-93, XXIV-94, XXV-2, XXV-26, XXV-49 and XXV-68.

[2] = tested on: Spodoptera littoralis (Egyptian Cotton Leafworm); experiment: Spodoptera littoralis cotton leaf disc spray test; conditions: foliar, 72 h, 200 ppm sprayed on cotton leaf discs, 5 L1 larvae, mortality, repellent effect, feeding behaviour, growth regulation 3 days after treatment
Description: Spodoptera littoralis (Egyptian Cotton Leafworm)
Cotton leaf discs were placed on agar in a 24-well microtiter plate and sprayed with test solutions at an application rate of 200 ppm. After drying, the leaf discs were infested with 5 L1 larvae. The samples were checked for mortality, repellent effect, feeding behaviour, and growth regulation 3 days after treatment (DAT). The following compounds gave at least 80% control of Spodoptera littoralis: • I-3, I-26, I-29, I-30, I-49, I-52, I-53, I-75, I-417, I-532, I-578, I-785, I-854, I-877, II-49, III-49, V-49, XII-49, XIV-26, XV-26, XXIV-2, XXIV-46, XXIV-90, XXIV-93, XXIV-94, XXV-26 and XXV-49.

[3] = tested on: Myzus persicae (Green Peach Aphid); experiment: Myzus persicae sunflower leaf disc spray test; conditions: foliar, 144 h, 200 ppm sprayed on sunflower leaf discs, aphid population of mixed ages, mortality after 6 DAT
Protocol: Sunflower leaf discs were placed on agar in a 24-well microtiter plate and sprayed with test solutions at an application rate of 200 ppm. After drying, the leaf discs were infested with an aphid population of mixed ages. After an incubation period of 6 DAT, samples were checked for mortality. The following compounds gave at least 80% control of Myzus persicae: • I-3, I-26, I-29, […], I-30, I-49, I-52, I-53, I-72, I-75, III-49, V-49, XXIV-46, XXIV-90 and XXIV-94.

[4] = tested on: Aedes aegypti (Yellow Fever Mosquito); experiment: Aedes aegypti larvae test in microtiter plates; conditions: 48 h, larvae (L2) with nutrition mixture, mortality and growth inhibition 2 days later
Description: 10-15 Aedes larvae (L2) together with a nutrition mixture are placed in 96-well microtiter plates. Test solutions at an application rate of 2 ppm are pipetted into the wells. 2 days later, insects were checked for mortality and growth inhibition. The following compounds gave at least 80% control of Aedes aegypti • I-3, I-26, I-29, I-30, I-49, I-52, I-53, I-72, I-75, I-76, III-49, III-118, XIV-26, XV-26, XXIV-2, XXIV-46, XXIV-90, XXIV-93, XXIV-94 and XXV-68.

O=C(Nc1ccccc1N1CCN(C/C=C/c2ccc(Cl)cc2)CC1)c1ccnc(Cl)c1 [Compound I-3, 2-chloro-N-(2-{4-[(E)-3-(4-chloro-phenyl)-allyl]-piperazin-1-yl}-phenyl)-isonicotinamide]
≥ 80%: pest or weed control at 200 ppm [1] | pest or weed control at 200 ppm [2] | pest or weed control at 200 ppm [3] | pest or weed control at 2 ppm [4]

O=C(Nc1ccccc1N1CCN(C/C=C/c2ccc(C(F)(F)F)cc2)CC1)c1ccnc(Cl)c1 [Compound I-6, 2-chloro-N-(2-{4-[(E)-3-(4-trifluoromethyl-phenyl)-allyl]-piperazin-1-yl}-phenyl)-isonicotinamide]
≥ 80%: pest or weed control at 200 ppm [1]

O=C(Nc1ccccc1N1CCN(C/C=C/c2ccc(OC(F)(F)F)cc2)CC1)c1ccnc(Cl)c1 [Compound I-7, 2-chloro-N-(2-{4-[(E)-3-(4-trifluoromethoxy-phenyl)-allyl]-piperazin-1-yl}-phenyl)-isonicotinamide]
≥ 80%: pest or weed control at 200 ppm [1]

O=C(Nc1ccc(F)cc1N1CCN(C/C=C/c2ccc(Cl)cc2)CC1)c1ccnc(Cl)c1 [Compound I-26, 2-chloro-N-(4-fluoro-2-{4-[(E)-3-(4-chloro-phenyl)-allyl]-piperazin-1-yl}-phenyl)-isonicotinamide]
≥ 80%: pest or weed control at 200 ppm [1] | pest or weed control at 200 ppm [2] | pest or weed control at 200 ppm [3] | pest or weed control at 2 ppm [4]

O=C(Nc1ccc(F)cc1N1CCN(C/C=C/c2ccc(C(F)(F)F)cc2)CC1)c1ccnc(Cl)c1 [Compound I-29, 2-chloro-N-(4-fluoro-2-{4-[(E)-3-(4-trifluoromethyl-phenyl)-allyl]-piperazin-1-yl}-phenyl)-isonicotinamide]
≥ 80%: pest or weed control at 200 ppm [1] | pest or weed control at 200 ppm [2] | pest or weed control at 200 ppm [3] | pest or weed control at 2 ppm [4]

O=C(Nc1ccc(F)cc1N1CCN(C/C=C/c2ccc(OC(F)(F)F)cc2)CC1)c1ccnc(Cl)c1 [Compound I-30, 2-chloro-N-(4-fluoro-2-{4-[(E)-3-(4-trifluoromethoxy-phenyl)-allyl]-piperazin-1-yl}-phenyl)-isonicotinamide]
≥ 80%: pest or weed control at 200 ppm [1] | pest or weed control at 200 ppm [2] | pest or weed control at 200 ppm [3] | pest or weed control at 2 ppm [4]

O=C(Nc1ccc(Cl)cc1N1CCN(Cc2ccc(Cl)cc2)CC1)c1ccnc(Cl)c1 [Compound I-47, 2-Chloro-N-{4-chloro-2-[4-(4-chloro-benzyl)-piperazin-1-yl}-phenyl)-isonicotinamide]
≥ 80%: pest or weed control at 200 ppm [1]

O=C(Nc1ccc(Cl)cc1N1CCN(C/C=C/c2ccc(Cl)cc2)CC1)c1ccnc(Cl)c1 [Compound I-49, 2-chloro-N-(4-chloro-2-{4-[(E)-3-(4-chloro-phenyl)-allyl]-piperazin-1-yl}-phenyl)-isonicotinamide]
≥ 80%: pest or weed control at 200 ppm [1] | pest or weed control at 200 ppm [2] | pest or weed control at 200 ppm [3] | pest or weed control at 2 ppm [4]

O=C(Nc1ccc(Cl)cc1N1CCN(C/C=C/c2ccc(C(F)(F)F)cc2)CC1)c1ccnc(Cl)c1 [Compound I-52, 2-chloro-N-(4-chloro-2-{4-[(E)-3-(4-trifluoromethyl-phenyl)-allyl]-piperazin-1-yl}-phenyl)-isonicotinamide]
≥ 80%: pest or weed control at 200 ppm [1] | pest or weed control at 200 ppm [2] | pest or weed control at 200 ppm [3] | pest or weed control at 2 ppm [4]

O=C(Nc1ccc(Cl)cc1N1CCN(C/C=C/c2ccc(OC(F)(F)F)cc2)CC1)c1ccnc(Cl)c1 [Compound I-53, 2-chloro-N-(4-chloro-2-{4-[(E)-3-(4-trifluoromethoxy-phenyl)-allyl]-piperazin-1-yl}-phenyl)-isonicotinamide]
≥ 80%: pest or weed control at 200 ppm [1] | pest or weed control at 200 ppm [2] | pest or weed control at 200 ppm [3] | pest or weed control at 2 ppm [4]

O=C(Nc1cc(F)ccc1N1CCN(C/C=C/c2ccc(Cl)cc2)CC1)c1ccnc(Cl)c1 [Compound I-72, 2-chloro-N-(5-fluoro-2-{4-[(E)-3-(4-chloro-phenyl)-allyl]-piperazin-1-yl}-phenyl)-isonicotinamide]
≥ 80%: pest or weed control at 200 ppm [1] | pest or weed control at 200 ppm [3] | pest or weed control at 2 ppm [4]

O=C(Nc1cc(F)ccc1N1CCN(C/C=C/c2ccc(C(F)(F)F)cc2)CC1)c1ccnc(Cl)c1 [Compound I-75, 2-chloro-N-(5-fluoro-2-{4-[(E)-3-(4-trifluoromethyl-phenyl)-allyl]-piperazin-1-yl}-phenyl)-isonicotinamide]
≥ 80%: pest or weed control at 200 ppm [1] | pest or weed control at 200 ppm [2] | pest or weed control at 200 ppm [3] | pest or weed control at 2 ppm [4]

O=C(Nc1cc(F)ccc1N1CCN(C/C=C/c2ccc(OC(F)(F)F)cc2)CC1)c1ccnc(Cl)c1 [Compound I-76, 2-chloro-N-(5-fluoro-2-{4-[(E)-3-(4-trifluoromethoxy-phenyl)-allyl]-piperazin-1-yl)-phenyl)-isonicotinamide]
≥ 80%: pest or weed control at 2 ppm [4]

O=C(Nc1cccnc1N1CCN(C/C=C/c2ccc(Cl)cc2)CC1)c1ccnc(Cl)c1 [XXIV-2, 2-chloro-N-(2-{4-[(E)-3-(4-chloro-phenyl)-allyl]-piperazin-1-yl}-pyridin-3-yl)-isonicotinamide]
≥ 80%: pest or weed control at 200 ppm [1] | pest or weed control at 200 ppm [2] | pest or weed control at 2 ppm [4]

O=C(Nc1ccc(Cl)nc1N1CCN(C/C=C/c2ccc(Cl)cc2)CC1)c1ccnc(Cl)c1 [XXIV-46, 2-chloro-N-(6-chloro-2-{4-[(E)-3-(4-chloro-phenyl)-allyl]-piperazin-1-yl}-pyridin-3-yl)-isonicotinamide]
≥ 80%: pest or weed control at 200 ppm [1] | pest or weed control at 200 ppm [2] | pest or weed control at 200 ppm [3] | pest or weed control at 2 ppm [4]

O=C(Nc1cc(Cl)cnc1N1CCN(C/C=C/c2ccc(Cl)cc2)CC1)c1ccnc(Cl)c1 [XXIV-90, 2-chloro-N-(5-chloro-2-{4-[(E)-3-(4-chloro-phenyl)-allyl]-piperazin-1-yl}-pyridin-3-yl)-isonicotinamide]
≥ 80%: pest or weed control at 200 ppm [1] | pest or weed control at 200 ppm [2] | pest or weed control at 200 ppm [3] | pest or weed control at 2 ppm [4]

O=C(Nc1cc(Cl)cnc1N1CCN(C/C=C/c2ccc(C(F)(F)F)cc2)CC1)c1ccnc(Cl)c1 [XXIV-93, 2-chloro-N-(5-chloro-2-{4-[(E)-3-(4-trifluoromethyl-phenyl)-allyl]-piperazin-1-yl}-pyridin-3-yl)-isonicotinamide]
≥ 80%: pest or weed control at 200 ppm [1] | pest or weed control at 200 ppm [2] | pest or weed control at 2 ppm [4]

O=C(Nc1cc(Cl)cnc1N1CCN(C/C=C/c2ccc(OC(F)(F)F)cc2)CC1)c1ccnc(Cl)c1 [XXIV-94, 2-chloro-N-(5-chloro-2-{4-[(E)-3-(4-trifluoromethoxy-phenyl)-allyl]-piperazin-1-yl}-pyridin-3-yl)-isonicotinamide]
≥ 80%: pest or weed control at 200 ppm [1] | pest or weed control at 200 ppm [2] | pest or weed control at 200 ppm [3] | pest or weed control at 2 ppm [4]
